Data from patent publication US20080188554A1, “METHODS OF TREATING AVIAN HYPERTENSION” (Regents of the University of California Office of …, priority 2006, published 2008).
Marks after values point to notes of the source that are not given here.

How the values were obtained:
sEH = target: T1, sEH (Homo sapiens, UniProt P34913); assay: sEH inhibition, general statements on earlier tests; format: biochemical; conditions: statement in words, no method given
T1 sequence (P34913 1-555): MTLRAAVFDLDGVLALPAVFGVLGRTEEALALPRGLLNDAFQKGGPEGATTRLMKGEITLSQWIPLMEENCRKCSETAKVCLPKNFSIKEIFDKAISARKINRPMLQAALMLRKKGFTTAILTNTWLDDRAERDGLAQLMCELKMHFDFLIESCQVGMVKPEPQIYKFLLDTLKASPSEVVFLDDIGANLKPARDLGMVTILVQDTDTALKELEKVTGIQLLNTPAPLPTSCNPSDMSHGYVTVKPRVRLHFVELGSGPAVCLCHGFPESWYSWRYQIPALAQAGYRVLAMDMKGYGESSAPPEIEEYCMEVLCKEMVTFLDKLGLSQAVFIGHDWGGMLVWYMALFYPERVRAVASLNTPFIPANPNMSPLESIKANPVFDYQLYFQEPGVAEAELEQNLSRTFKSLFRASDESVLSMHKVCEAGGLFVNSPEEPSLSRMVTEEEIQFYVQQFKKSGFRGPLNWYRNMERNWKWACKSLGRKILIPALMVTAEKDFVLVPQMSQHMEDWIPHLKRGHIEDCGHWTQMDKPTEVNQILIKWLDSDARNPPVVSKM

mouse sEH = target: T2, mouse sEH (Mus musculus, UniProt P34914); conditions: compound as substrate, from Morisseau 2000; cited from earlier work
T2 sequence (P34914 1-554): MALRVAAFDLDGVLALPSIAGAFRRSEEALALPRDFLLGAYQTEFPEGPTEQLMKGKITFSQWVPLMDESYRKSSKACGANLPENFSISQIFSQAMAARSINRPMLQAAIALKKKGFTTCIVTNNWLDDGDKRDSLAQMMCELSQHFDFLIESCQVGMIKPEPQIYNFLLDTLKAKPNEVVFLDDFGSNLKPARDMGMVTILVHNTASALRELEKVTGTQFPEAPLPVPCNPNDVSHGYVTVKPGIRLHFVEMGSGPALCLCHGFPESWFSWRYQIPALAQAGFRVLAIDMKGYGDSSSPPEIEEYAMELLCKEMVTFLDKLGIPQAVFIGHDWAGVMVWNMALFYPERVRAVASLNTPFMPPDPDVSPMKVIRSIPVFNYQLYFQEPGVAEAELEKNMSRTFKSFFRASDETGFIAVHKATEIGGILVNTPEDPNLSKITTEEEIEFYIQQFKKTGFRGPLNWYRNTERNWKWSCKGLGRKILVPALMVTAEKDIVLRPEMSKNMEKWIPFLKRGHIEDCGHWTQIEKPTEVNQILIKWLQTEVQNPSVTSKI

Recombinant chicken sEH = Recombinant chicken sEH (Gallus gallus, UniProt Q45QT1); assay: Non-radioactive epoxide hydrolase assay (HPLC-MS/MS), specific activity of substrates; format: biochemical; conditions: compound as substrate, 50 μM, 30° C., 10 min
Description: The trans-9,10-epoxystearate was purchased (Sigma-Aldrich). A 5 mM solution of each substrate was made in ethanol for the EETs and methanol for the epoxystearate. The substrate solution (1 μL) was added to 100 μL of enzyme preparation in sodium phosphate buffer (0.1 M, pH 7.4) containing 0.1 mg/mL of BSA ([S]final=50 μM). The enzyme was incubated with the substrate at 30° C. for 10 min, and the reaction quenched by addition of 400 μL of methanol. The products were analyzed by HPLC-MS/MS as previously described (Newman, J. W. et al., J. Lipid Res. 43:1563-1578 (2002)) with the following exceptions. A 2.0×20 mm, 3-μm Luna C18 Mercury MS column (Phenomenex, Torrance, Calif.) was used with a 350 μL/min isocratic flow of […] (vol/vol/vol) acetonitrile/water/methanol with 0.1% glacial acetic acid for 2.5 min. Assays were performed in triplicate.

Sequence of Recombinant chicken sEH (Q45QT1 entry or part of it): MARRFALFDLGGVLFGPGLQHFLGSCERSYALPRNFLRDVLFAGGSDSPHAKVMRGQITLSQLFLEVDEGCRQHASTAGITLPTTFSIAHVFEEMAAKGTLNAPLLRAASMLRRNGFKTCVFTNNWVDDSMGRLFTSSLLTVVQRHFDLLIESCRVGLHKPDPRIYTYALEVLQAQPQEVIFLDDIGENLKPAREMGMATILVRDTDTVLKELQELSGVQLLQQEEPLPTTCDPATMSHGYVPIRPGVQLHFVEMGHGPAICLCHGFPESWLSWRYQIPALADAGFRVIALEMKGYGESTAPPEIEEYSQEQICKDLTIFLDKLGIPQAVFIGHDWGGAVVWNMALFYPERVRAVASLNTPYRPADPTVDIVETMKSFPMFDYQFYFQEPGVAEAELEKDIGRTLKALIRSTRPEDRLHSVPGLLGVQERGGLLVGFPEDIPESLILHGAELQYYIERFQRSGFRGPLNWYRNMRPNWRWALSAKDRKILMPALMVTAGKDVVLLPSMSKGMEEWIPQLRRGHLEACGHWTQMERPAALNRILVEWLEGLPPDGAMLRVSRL

| Compound | Activity as inhibitor of sEH (sEH) | Specific activity (mouse sEH) | Specific activity (Recombinant chicken sEH) |
| --- | --- | --- | --- |
| CCCCCCCCCCCCNC(=O)NC12CC3CC(CC(C3)C1)C2 [ADU, N-Adamantyl-N′-dodecyl urea] | particularly high activity |  |  |
| CCCCCCCCC1OC1CCCCCCCC(=O)O (stereo not drawn) [cis-9,10-epoxystearic acid] |  | 1139 ± 34* nmol · min^−1 · mg^−1 | 3.1 ± 0.2 nmol/min/mg |
